Laboratory results reported in US8071590B2, “9-substituted-5-carboxy-oxadiazino-quinolone derivatives, their preparation and their application as anti-bacterials” (Vetoquinol SA, priority 2008, dated 2011).
Values after ≈ are worked out from the molar mass of the structure shown.

How the values were obtained:
Format in all cases: cell-based
[1] = test system: Mannheimia haemolytica, susceptible (Man hae s); experiment: MIC determination by microdilution in liquid medium; conditions: susceptible strain
[2] = test system: Clostridium perfringens (Clo per); experiment: microbe, parasite or virus in culture; conditions: read-out: MIC Clo per
[3] = test system: Staphylococcus aureus, resistant (Sta aur r); experiment: microbe, parasite or virus in culture; conditions: read-out: MIC Sta aur r
[4] = test system: Staphylococcus aureus, susceptible (Sta aur s); experiment: microbe, parasite or virus in culture; conditions: read-out: MIC Sta aur s
[5] = test system: Escherichia coli (E coli); experiment: microbe, parasite or virus in culture; conditions: read-out: MIC E coli
[6] = test system: Mycoplasma bovis (Myc bov); experiment: microbe, parasite or virus in culture; conditions: Mycoplasmopsis bovis, read-out: MIC Myc bov
[7] = test system: Streptococcus uberis (Str ube); experiment: microbe, parasite or virus in culture; conditions: read-out: MIC Str ube
[8] = test system: Bordetella bronchiseptica (Bor bron); experiment: microbe, parasite or virus in culture; conditions: read-out: MIC Bor bron
[9] = test system: Pseudomonas aeruginosa, susceptible (Pse aer s); experiment: microbe, parasite or virus in culture; conditions: read-out: MIC Pse aer s
[10] = test system: Pseudomonas aeruginosa, resistant (Pse aer r); experiment: microbe, parasite or virus in culture; conditions: read-out: MIC Pse aer r
[11] = test system: Mannheimia haemolytica, resistant (Man hae r); experiment: MIC determination by microdilution in liquid medium; conditions: resistant strain

Structure (SMILES): CN1COc2c(N3CCN(C(=O)c4cccn4C)CC3)c(F)cc3c(=O)c(C(=O)O)cn1c23 [Example 1, 8-Fluoro-3-methyl-9-[4-(1-methyl-1H-pyrrole-2-carbonyl)-piperazin-1-yl]-6-oxo-2,3-dihydro-6H-1-oxa-3,3a-diaza-phenalene-5-carboxylic acid]
- MIC [1]: 1 µg/mL (≈ 2.2 µM)
- MIC [2]: 0.5 µg/mL (≈ 1.1 µM)
- MIC [3]: 16 µg/mL (≈ 35.1 µM)
- MIC [4]: 0.25 µg/mL (≈ 0.549 µM)
- MIC [5]: > 1 µg/mL
- MIC [6]: 0.5 µg/mL (≈ 1.1 µM)
- MIC [7]: 2 µg/mL (≈ 4.39 µM)
- MIC [8]: > 1 µg/mL

Structure (SMILES): CN1COc2c(N3CCN(C(=O)c4cscn4)CC3)c(F)cc3c(=O)c(C(=O)O)cn1c23 [Example 2]
- MIC [1]: 0.25 µg/mL (≈ 0.544 µM)
- MIC [2]: 0.25 µg/mL (≈ 0.544 µM)
- MIC [3]: 8 µg/mL (≈ 17.4 µM)
- MIC [4]: 0.12 µg/mL (≈ 0.261 µM)
- MIC [5]: > 1 µg/mL
- MIC [6]: 1 µg/mL (≈ 2.18 µM)
- MIC [7]: 2 µg/mL (≈ 4.35 µM)
- MIC [8]: > 1 µg/mL

Structure (SMILES): Cc1ncsc1C(=O)N1CCN(c2c(F)cc3c(=O)c(C(=O)O)cn4c3c2OCN4C)CC1 [Example 3, 8-Fluoro-3-methyl-9-[4-(4-methyl-thiazole-5-carbonyl)-piperazin-1-yl]-6-oxo-2,3-dihydro-6H-1-oxa-3,3a-diaza-phenalene-5-carboxylic acid]
- MIC [1]: 0.5 µg/mL (≈ 1.06 µM)
- MIC [2]: 0.5 µg/mL (≈ 1.06 µM)
- MIC [3]: 16 µg/mL (≈ 33.8 µM)
- MIC [4]: 0.25 µg/mL (≈ 0.528 µM)
- MIC [5]: > 1 µg/mL
- MIC [6]: 2 µg/mL (≈ 4.22 µM)
- MIC [7]: 1 µg/mL (≈ 2.11 µM)
- MIC [8]: 2 µg/mL (≈ 4.22 µM)

Structure (SMILES): CN1COc2c(N3CCN(C(=O)c4cccs4)CC3)c(F)cc3c(=O)c(C(=O)O)cn1c23 [Example 4, 8-Fluoro-3-methyl-6-oxo-9-[4-(thiophene-2-carbonyl)-piperazin-1-yl]-2,3-dihydro-6H-1-oxa-3,3a-diaza-phenalene-5-carboxylic acid]
- MIC [1]: 0.25 µg/mL (≈ 0.545 µM)
- MIC [2]: 0.25 µg/mL (≈ 0.545 µM)
- MIC [3]: 4 µg/mL (≈ 8.72 µM)
- MIC [4]: 0.06 µg/mL (≈ 0.131 µM)
- MIC [5]: > 1 µg/mL
- MIC [6]: 0.5 µg/mL (≈ 1.09 µM)
- MIC [7]: 0.5 µg/mL (≈ 1.09 µM)
- MIC [8]: 2 µg/mL (≈ 4.36 µM)

Structure (SMILES): CN1COc2c(N3CCN(C(=O)c4ccco4)CC3)c(F)cc3c(=O)c(C(=O)O)cn1c23 [Example 5, 8-Fluoro-9-[4-(furan-2-carbonyl)-piperazin-1-yl]-3-methyl-6-oxo-Z 3-dihydro-6H-1-oxa-3,3a-diaza-phenalene-5-carboxylic acid]
- MIC [1]: 0.25 µg/mL (≈ 0.565 µM)
- MIC [2]: < 0.03 µg/mL
- MIC [3]: 4 µg/mL (≈ 9.04 µM)
- MIC [4]: 0.06 µg/mL (≈ 0.136 µM)
- MIC [5]: 1 µg/mL (≈ 2.26 µM)
- MIC [9]: > 1 µg/mL
- MIC [6]: 0.5 µg/mL (≈ 1.13 µM)
- MIC [7]: 1 µg/mL (≈ 2.26 µM)
- MIC [8]: > 1 µg/mL

Structure (SMILES): CN1COc2c(N3CCN4CCCCC4C3)c(F)cc3c(=O)c(C(=O)O)cn1c23 (stereo not shown) [Example 6, 8-Fluoro-3-methyl-9-(octahydro-pyrido[1,2-a]pyrazin-2-yl)-6-oxo-2,3-dihydro-6H-1-oxa-3,3a-diaza-phenalene-5-carboxylic acid]
- MIC [1]: 0.06 µg/mL (≈ 0.149 µM)
- MIC [2]: 0.5 µg/mL (≈ 1.24 µM)
- MIC [3]: 16 µg/mL (≈ 39.8 µM)
- MIC [4]: 0.25 µg/mL (≈ 0.621 µM)
- MIC [5]: 0.12 µg/mL (≈ 0.298 µM)
- MIC [9]: 2 µg/mL (≈ 4.97 µM)
- MIC [6]: 1 µg/mL (≈ 2.48 µM)
- MIC [7]: 1 µg/mL (≈ 2.48 µM)
- MIC [10]: 32 µg/mL (≈ 79.5 µM)
- MIC [8]: 1 µg/mL (≈ 2.48 µM)
- MIC [11]: 16 µg/mL (≈ 39.8 µM)

Structure (SMILES): CN1COc2c(N3CCN4CCCC4C3)c(F)cc3c(=O)c(C(=O)O)cn1c23 (stereo not shown) [Example 7, 8-Fluoro-9-(hexahydro-pyrrolo[1,2-a]pyrazin-2-yl)-3-methyl-6-oxo-2,3-dihydro-6H-1-oxa-3,3a-diaza-phenalene-5-carboxylic acid]
- MIC [1]: 0.03 µg/mL (≈ 0.0772 µM)
- MIC [2]: 0.25 µg/mL (≈ 0.644 µM)
- MIC [3]: 16 µg/mL (≈ 41.2 µM)
- MIC [4]: 0.25 µg/mL (≈ 0.644 µM)
- MIC [5]: 0.06 µg/mL (≈ 0.154 µM)
- MIC [9]: 1 µg/mL (≈ 2.57 µM)
- MIC [6]: 1 µg/mL (≈ 2.57 µM)
- MIC [7]: 0.5 µg/mL (≈ 1.29 µM)
- MIC [10]: 8 µg/mL (≈ 20.6 µM)
- MIC [8]: 0.5 µg/mL (≈ 1.29 µM)
- MIC [11]: 4 µg/mL (≈ 10.3 µM)

Structure (SMILES): CN1COc2c(N3CCN4CCC[C@H]4C3)c(F)cc3c(=O)c(C(=O)O)cn1c23 [Example 8, 8-Fluoro-9-(S)-hexahydro-pyrrolo[1,2-a]pyrazin-2-yl-3-methyl-6-oxo-2,3-dihydro-6H-1-oxa-3,3a-diaza-phenalene-5-carboxylic acid]
- MIC [1]: 0.03 µg/mL (≈ 0.0772 µM)
- MIC [2]: 0.25 µg/mL (≈ 0.644 µM)
- MIC [3]: 16 µg/mL (≈ 41.2 µM)
- MIC [4]: 0.25 µg/mL (≈ 0.644 µM)
- MIC [5]: 0.03 µg/mL (≈ 0.0772 µM)
- MIC [9]: 0.5 µg/mL (≈ 1.29 µM)
- MIC [6]: 1 µg/mL (≈ 2.57 µM)
- MIC [7]: 0.5 µg/mL (≈ 1.29 µM)
- MIC [10]: 8 µg/mL (≈ 20.6 µM)
- MIC [8]: 0.5 µg/mL (≈ 1.29 µM)
- MIC [11]: 8 µg/mL (≈ 20.6 µM)

Structure (SMILES): CN1COc2c(N3CCN4CCC[C@@H]4C3)c(F)cc3c(=O)c(C(=O)O)cn1c23 [Example 9, 8-Fluoro-9-(R)-hexahydro-pyrrolo[1,2-a]pyrazin-2-yl-3-methyl-6-oxo-2,3-dihydro-6H-1-oxa-3,3a-diaza-phenalene-5-carboxylic acid]
- MIC [1]: 0.03 µg/mL (≈ 0.0772 µM)
- MIC [2]: 0.5 µg/mL (≈ 1.29 µM)
- MIC [3]: 8 µg/mL (≈ 20.6 µM)
- MIC [4]: 0.12 µg/mL (≈ 0.309 µM)
- MIC [5]: 0.03 µg/mL (≈ 0.0772 µM)
- MIC [9]: 0.5 µg/mL (≈ 1.29 µM)
- MIC [6]: 0.5 µg/mL (≈ 1.29 µM)
- MIC [7]: 0.5 µg/mL (≈ 1.29 µM)
- MIC [10]: 8 µg/mL (≈ 20.6 µM)
- MIC [8]: 0.25 µg/mL (≈ 0.644 µM)
- MIC [11]: 4 µg/mL (≈ 10.3 µM)
